Source: paper PMC7922932, “Molecular Dissection of Escherichia coli CpdB: Roles of the N Domain in Catalysis and Phosphate Inhibition, and of the C Domain in Substrate Specificity and Adenosine Inhibition” (International Journal of Molecular Sciences, 2021)
Read-outs that look alike come from different tables or passages of the source.

Key:
[1] = biological target: T1, CpdB_Ndom (Escherichia coli, UniProt P08331, D305N/I97V/M87I); assay: biochemical
T1 construct: GST (N, cleaved yes); made in house; host or cells: E. coli BL21
Protocol: Substrate saturation experiments were run in the absence and the presence of one of these inhibitors at fixed concentrations (Figure 7).
(§1) Reaction mixtures of 100 µL contained, besides the needed amount of enzyme (i.e., 0.02–0.05 µg/mL of mature CpdB, 2 µg/mL of a CpdB point mutant, or 0.2 µg/mL of CpdB_Ndom), 50 mM Tris [Tris(hydroxymethyl)aminomethane]-HCl pH 7.5 (adjusted at 37 °C), 2 mM MnCl2, 0.1 mg/mL bovine serum albumin, and the indicated concentrations of bis-4-NPP and the compound tested as inhibitor. Incubations performed at 37 °C were stopped by addition of 0.5 mL of 200 mM Tris, pH 8.9, 5 mM EDTA (ethylenediaminetetraacetate), immediately followed by A405 measurement (ε = 18.1 mM^−1 cm^−1). This termination procedure was used instead of the addition of a high NaOH concentration, to avoid the known formation of brown precipitates of air-oxidized Mn^2+ hydroxide. On occasions, when a higher sensitivity was needed, reaction mixtures of 500 µL were implemented and termination was performed with 0.1 mL 1M Tris, pH 8.9, 30 mM EDTA.

[2] = biological target: T2, His^117Ala-CpdB (H117A-CpdB) (Escherichia coli, UniProt P08331, D305N/H117A/I514V/I97V/M87I/N471D/S472N); assay: biochemical
T2 construct: A structural model of mature CpdB (aa 20–647) was built; GST (N, cleaved yes); made in house; host or cells: E. coli BL21
Protocol: (§2) The two point mutants His^117Ala and Tyr^544Ala of mature CpdB were also tested for the inhibition of the hydrolysis of bis-4-NPP by adenosine.
as §1

[3] = biological target: T3, Tyr^544Ala-CpdB (Y544A-CpdB) (Escherichia coli, UniProt P08331, D305N/I514V/I97V/M87I/N471D/S472N/Y544A); assay: biochemical
T3 construct: A structural model of mature CpdB (aa 20–647) was built; GST (N, cleaved yes); made in house; host or cells: E. coli BL21
Protocol: as §2, §1

[4] = biological target: T4, Mature CpdB (Escherichia coli, UniProt P08331); assay: biochemical
From the text: In this approach, inhibitors were used as probes for the relevance of those enzyme sites, irrespective of the physiological character and concentrations of the compounds used.
The procedures and detailed conditions to measure the initial rates of phosphohydrolytic reactions were as earlier described [4]. […] The same assay was used with 2′,3′- or 3′,5′-cyclic nucleotides, CDP-choline and bis-4-NPP except that an excess of alkaline phosphatase was included in the reaction mixture as auxiliary enzyme.
The procedures followed to derive kinetic parameters kcat, KM and Ki from initial rate vs. substrate concentration datasets, either in the presence or the absence of inhibitor, were as described elsewhere [49]. Datasets obtained with different substrates in the absence of inhibitors were used to derive kcat and KM values by adjusting the Michaelis-Menten equation to the experimental points by non-linear regression. […] Each one of these equations was simultaneously adjusted (global fit) by nonlinear regression to the three saturation curves of each inhibition experiment, using the Solver function of Microsoft Excel. During the adjustments, Vmax, KM and Ki were left to fluctuate. […] In each set of experiments, the type of inhibition that gave the best fit was used as the model to estimate Ki values.

[5] = biological target: T4, Mature CpdB; assay: biochemical; format: biochemical; parameters: A structural model of mature CpdB (aa 20–647) was built; GST (N, cleaved yes); made in house; host or cells: E. coli BL21
Protocol: as §1

[6] = biological target: CpdB_Ndom; format: biochemical, Escherichia coli; conditions: CpdB_Ndom versus CpdB; bis-4-NPP as substrate
[7] = biological target: T1, CpdB_Ndom; format: biochemical; conditions: CpdB_Ndom; 750 µM bis-4-NPP as the substrate; single illustrative experiments

T4 sequence (P08331 20-647): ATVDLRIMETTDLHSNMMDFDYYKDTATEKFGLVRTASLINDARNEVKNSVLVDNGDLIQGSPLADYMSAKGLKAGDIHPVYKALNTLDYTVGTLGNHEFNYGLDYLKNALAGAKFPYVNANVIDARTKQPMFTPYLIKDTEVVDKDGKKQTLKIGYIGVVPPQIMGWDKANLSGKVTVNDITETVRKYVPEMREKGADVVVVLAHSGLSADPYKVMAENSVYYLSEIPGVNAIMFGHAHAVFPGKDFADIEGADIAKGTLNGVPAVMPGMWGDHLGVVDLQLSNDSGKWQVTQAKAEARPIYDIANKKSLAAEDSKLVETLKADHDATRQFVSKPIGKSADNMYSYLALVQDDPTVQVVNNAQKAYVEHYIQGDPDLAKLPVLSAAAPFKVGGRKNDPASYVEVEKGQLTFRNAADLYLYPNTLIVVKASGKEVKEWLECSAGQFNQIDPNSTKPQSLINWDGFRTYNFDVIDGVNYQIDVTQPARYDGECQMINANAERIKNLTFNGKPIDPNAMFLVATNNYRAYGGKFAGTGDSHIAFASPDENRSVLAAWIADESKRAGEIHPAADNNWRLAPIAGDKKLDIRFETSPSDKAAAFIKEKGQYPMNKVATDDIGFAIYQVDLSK
T1 sequence (P08331 20-354 M87I/I97V/D305N): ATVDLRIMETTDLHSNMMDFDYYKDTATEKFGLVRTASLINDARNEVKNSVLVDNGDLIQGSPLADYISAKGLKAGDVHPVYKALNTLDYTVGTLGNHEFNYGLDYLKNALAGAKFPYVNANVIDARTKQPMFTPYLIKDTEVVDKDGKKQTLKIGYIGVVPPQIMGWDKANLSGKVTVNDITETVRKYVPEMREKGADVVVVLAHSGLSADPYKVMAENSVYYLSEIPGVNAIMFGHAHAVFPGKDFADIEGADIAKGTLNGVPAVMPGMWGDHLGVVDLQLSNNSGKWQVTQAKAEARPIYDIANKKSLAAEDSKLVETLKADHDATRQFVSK
T3 sequence (P08331 20-647 M87I/I97V/D305N/N471D/S472N/I514V/Y544A): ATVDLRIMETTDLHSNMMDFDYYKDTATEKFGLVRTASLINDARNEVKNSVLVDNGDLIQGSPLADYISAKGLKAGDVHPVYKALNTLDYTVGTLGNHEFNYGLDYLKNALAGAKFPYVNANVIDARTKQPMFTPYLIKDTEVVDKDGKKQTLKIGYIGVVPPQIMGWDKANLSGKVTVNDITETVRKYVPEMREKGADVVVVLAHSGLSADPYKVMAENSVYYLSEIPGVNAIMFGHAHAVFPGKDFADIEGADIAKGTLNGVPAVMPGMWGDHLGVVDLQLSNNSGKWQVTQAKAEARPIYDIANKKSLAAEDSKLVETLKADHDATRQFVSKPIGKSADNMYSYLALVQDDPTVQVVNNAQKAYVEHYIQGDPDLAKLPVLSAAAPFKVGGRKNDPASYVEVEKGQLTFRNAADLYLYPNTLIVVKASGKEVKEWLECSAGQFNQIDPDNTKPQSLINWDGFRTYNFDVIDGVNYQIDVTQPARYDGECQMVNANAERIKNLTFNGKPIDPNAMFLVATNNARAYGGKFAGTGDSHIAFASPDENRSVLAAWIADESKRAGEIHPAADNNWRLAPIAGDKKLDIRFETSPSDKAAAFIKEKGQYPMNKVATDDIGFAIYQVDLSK
T2 sequence (P08331 20-647 M87I/I97V/H117A/D305N/N471D/S472N/I514V): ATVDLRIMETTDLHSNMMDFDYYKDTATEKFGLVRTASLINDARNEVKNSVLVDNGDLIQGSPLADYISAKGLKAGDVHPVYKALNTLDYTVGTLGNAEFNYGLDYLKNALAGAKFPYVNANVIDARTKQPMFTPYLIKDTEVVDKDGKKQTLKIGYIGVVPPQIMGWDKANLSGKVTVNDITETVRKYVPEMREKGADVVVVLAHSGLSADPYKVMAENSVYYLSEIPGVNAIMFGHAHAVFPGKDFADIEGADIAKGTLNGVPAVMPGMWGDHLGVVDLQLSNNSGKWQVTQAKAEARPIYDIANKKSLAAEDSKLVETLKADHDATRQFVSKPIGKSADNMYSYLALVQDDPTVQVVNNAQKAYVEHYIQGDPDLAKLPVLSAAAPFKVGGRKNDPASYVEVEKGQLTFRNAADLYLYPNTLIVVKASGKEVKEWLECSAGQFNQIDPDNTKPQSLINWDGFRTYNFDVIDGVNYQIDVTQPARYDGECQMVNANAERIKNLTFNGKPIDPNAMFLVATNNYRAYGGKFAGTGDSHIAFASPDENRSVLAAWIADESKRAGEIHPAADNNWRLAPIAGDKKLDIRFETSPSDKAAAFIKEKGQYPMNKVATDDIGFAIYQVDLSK

Compound	IC50 [1]	Ki [1]	IC50 [2]	IC50 [3]	IC50 [4]	Ki [4]	IC50 [5]	Ki [5]	Ki ([1]; CpdB_Ndom, substrate bis-4-NPP, global fit, complete competitive inhibition (Figure 7), read-out: Inhibition constant (Ki))	Ki increase in the absence of the C-terminal domain [6]	IC50 [7]	IC50 ([5]; mature CpdB, 750 µM bis-4-NPP as the substrate, single illustrative experiments, read-out: IC50)	Ki ([5]; mature CpdB, substrate bis-4-NPP, global fit, mixed partial inhibition (Figure 5), values without SD are single experiments, read-out: Inhibition constant (Ki))
Nc1ncnc2c1ncn2[C@@H]1O[C@H](CO)[C@@H](O)[C@H]1O [Adenosine, adenosine]	> 10000 µM	48000 µM	2000 µM	~30000 µM	3250 µM	41 ± 17 µM	870 µM	160 µM	–	–	–	–	–
phosphate	–	–	–	–	–	–	–	–	1060 ± 210 µM	did not change	1700 µM	9000 µM	1380 ± 340 µM
